{
  "source": "patent US20030087843A1",
  "about": "“O-pyrazole glucoside SGLT2 inhibitors and method of use” (priority 2001, published 2003)",
  "origin": "cited, not measured here",
  "key": {"[1]": {"target": "T1, human SGLT1 (Homo sapiens, UniProt P13866)", "T1 sequence (P13866 1-664)": "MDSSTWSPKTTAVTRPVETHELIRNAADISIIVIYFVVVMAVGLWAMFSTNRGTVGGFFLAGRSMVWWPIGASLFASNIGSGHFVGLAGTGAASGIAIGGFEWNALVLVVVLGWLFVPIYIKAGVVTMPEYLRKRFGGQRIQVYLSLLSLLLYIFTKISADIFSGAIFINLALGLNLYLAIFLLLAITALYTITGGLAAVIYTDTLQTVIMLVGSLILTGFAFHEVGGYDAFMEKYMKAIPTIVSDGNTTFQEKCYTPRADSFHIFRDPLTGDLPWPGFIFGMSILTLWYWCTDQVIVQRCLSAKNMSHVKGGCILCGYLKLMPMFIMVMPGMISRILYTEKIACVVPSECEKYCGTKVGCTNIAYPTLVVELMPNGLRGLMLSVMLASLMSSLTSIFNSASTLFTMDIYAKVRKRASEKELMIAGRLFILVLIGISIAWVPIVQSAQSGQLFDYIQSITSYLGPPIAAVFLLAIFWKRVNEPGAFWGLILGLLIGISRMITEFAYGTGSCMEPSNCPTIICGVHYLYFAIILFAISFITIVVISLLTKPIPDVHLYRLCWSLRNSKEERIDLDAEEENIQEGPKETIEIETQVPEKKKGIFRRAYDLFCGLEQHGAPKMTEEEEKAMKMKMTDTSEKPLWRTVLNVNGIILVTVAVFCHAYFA", "conditions": "read-out: Km for uptake of AMG"}, "[2]": {"target": "T2, human SGLT2 (Homo sapiens, UniProt P31639)", "T2 sequence (P31639 1-672)": "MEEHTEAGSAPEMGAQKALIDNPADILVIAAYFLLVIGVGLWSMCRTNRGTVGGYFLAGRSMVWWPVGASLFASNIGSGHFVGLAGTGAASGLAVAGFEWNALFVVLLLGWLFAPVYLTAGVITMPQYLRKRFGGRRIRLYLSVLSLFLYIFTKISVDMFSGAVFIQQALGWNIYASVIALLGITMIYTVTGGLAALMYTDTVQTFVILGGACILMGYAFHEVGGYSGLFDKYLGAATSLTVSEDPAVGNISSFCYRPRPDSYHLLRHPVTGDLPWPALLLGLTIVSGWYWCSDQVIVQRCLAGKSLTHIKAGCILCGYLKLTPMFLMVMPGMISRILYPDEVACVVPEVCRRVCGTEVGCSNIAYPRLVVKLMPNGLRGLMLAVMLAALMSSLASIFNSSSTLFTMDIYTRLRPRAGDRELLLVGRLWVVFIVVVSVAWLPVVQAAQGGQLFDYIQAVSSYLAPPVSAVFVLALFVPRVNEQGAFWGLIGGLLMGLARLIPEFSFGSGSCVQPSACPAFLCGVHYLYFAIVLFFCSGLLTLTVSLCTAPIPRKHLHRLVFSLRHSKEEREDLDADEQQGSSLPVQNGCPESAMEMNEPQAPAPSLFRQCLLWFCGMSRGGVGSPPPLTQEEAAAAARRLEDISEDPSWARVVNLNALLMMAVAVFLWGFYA", "conditions": "read-out: Km for uptake of AMG"}, "[3]": {"test_system": "facilitative glucose transporters (GLUTs)"}, "[4]": {"conditions": "oral"}, "[5]": {"test_system": "SGLT2 activity"}, "[6]": {"conditions": "normal animals, despite the presence of glycosuria"}, "[7]": {"conditions": "diabetic rodent models and one canine diabetes model"}},
  "data": [
    {"compound": "CO[C@H]1O[C@H](CO)[C@@H](O)[C@H](O)[C@H]1O", "note": "[AMG, α-methyl-D-glucopyranoside]", "values": [
      {"measurement": "Km", "setting": "[1]", "result": 400, "unit": "µM"},
      {"measurement": "Km", "setting": "[2]", "result": 1600, "unit": "µM"}
    ]},
    {"compound": "O=C(CCc1ccc(O)cc1)c1c(O)cc(O)cc1O", "note": "[phloretin]", "values": [
      {"measurement": "inhibition of facilitated glucose transport", "setting": "[3]", "result": "potent inhibitor"}
    ]},
    {"compound": "O=C(CCc1ccc(O)cc1)c1c(O)cc(O)cc1O[C@@H]1O[C@H](CO)[C@@H](O)[C@H](O)[C@H]1O", "note": "[phlorizin]", "values": [
      {"measurement": "hydrolysis in the gut", "setting": "[4]", "result": "hydrolyzed in the gut to its aglycone phloretin"},
      {"measurement": "fasting and fed plasma glucose", "setting": "[5]; [7]", "result": "lowering fasting and fed plasma glucose"},
      {"measurement": "glucose excretion", "setting": "[5]; [7]", "result": "promoting glucose excretion"},
      {"measurement": "hypoglycemic side effects", "setting": "[5]; [7]", "result": "without hypoglycemic side effects"},
      {"measurement": "adverse effects on plasma ion balance, renal function or renal morphology", "setting": "[5]; treatment for as long as two weeks", "result": "No adverse effects"},
      {"measurement": "hypoglycemic or other adverse effects", "setting": "[6]", "result": "no hypoglycemic or other adverse effects"}
    ]}
  ]
}
